Test results taken from publication PMC6858323, “Multiple conformations facilitate PilT function in the type IV pilus” (Nature Communications, 2019).

Legend:
[1] = molecular target: T1, PilT^Gm (PilT4 from Geobacter metallireducens) (Geobacter metallireducens, UniProt Q39VU6); test: X-ray crystal structure (OCOCOC); conditions: preincubated with Mg2+ and ATP, unbound nucleotide removed, pH 7.6; nucleotide-binding site
T1 construct: gene pilT-4; hexamer; domains N2D residues 1-100, CTD 101-353

[2] = molecular target: T1, PilT^Gm (PilT4 from Geobacter metallireducens); test: X-ray crystal structure (anisotropic, about […] A); conditions: 2 mM ANP, 2 mM MgCl2, pH 7.9 reservoir; four of six nucleotide-binding sites, ADP in the other two; CCOCCO conformation

T1 sequence (Q39VU6 entry or part of it): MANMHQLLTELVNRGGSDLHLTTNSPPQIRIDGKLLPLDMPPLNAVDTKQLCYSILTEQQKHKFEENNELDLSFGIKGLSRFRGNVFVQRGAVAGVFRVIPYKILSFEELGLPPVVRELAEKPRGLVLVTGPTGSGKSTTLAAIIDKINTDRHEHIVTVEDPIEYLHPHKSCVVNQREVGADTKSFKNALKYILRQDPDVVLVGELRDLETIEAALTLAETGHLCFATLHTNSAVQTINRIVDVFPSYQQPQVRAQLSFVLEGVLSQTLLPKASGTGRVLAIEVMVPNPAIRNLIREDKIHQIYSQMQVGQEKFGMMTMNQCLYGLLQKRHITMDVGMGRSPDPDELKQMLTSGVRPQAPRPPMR

SMILES | X-ray crystal structure (OCOCOC) [1] | X-ray crystal structure (anisotropic, about 4.0 A) [2]
Nc1ncnc2c1ncn2[C@@H]1O[C@H](COP(=O)(O)OP(=O)(O)O)[C@@H](O)[C@H]1O [ADP] | An isomorphous structure with high ADP occupancy was obtained | –
Nc1ncnc2c1ncn2[C@@H]1O[C@H](COP(=O)(O)OP(=O)(O)NP(=O)(O)O)[C@@H](O)[C@H]1O [ANP] | – | density consistent with ANP could be modeled into four of the six nucleotide-binding sites
